We go through 19 compounds from patent publication US10219516B2, “Molecules having pesticidal utility, and intermediates, compositions, and processes, related thereto” (priority 2015, dated 2019).

Holding throughout (format): in vivo
In assay [1] the test system is Yellow Fever Mosquito (Aedes aegypti, AEDSAE). Nature of the assay: Bioassay on Yellow Fever Mosquito (YFM), 96-well plate larval assay. The conditions noted are these: for YFM rating: Yellow Fever Mosquito, 96-well plate larval assay; for YFM (Biological Results, rating): Species YFM (Yellow Fever Mosquito). The essentials: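 Each well was scored for mortality after 3 days at room temperature under a non-evaporative lid. Test molecules came from DMSO masters (4000 ppm stock) diluted with water/acetone 90:10 and dispensed into six replicate plates, which were then infested with roughly 1-day-old larvae in liver-powder water.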

For assay [2], the system named is Cabbage Looper (Trichoplusia ni, TRIPNI). Nature of the assay: Bioassay on Cabbage Looper (CL), 128-well diet tray assay. Particulars: Trichoplusia ni. The essentials: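 Test molecule is dissolved in 90:10 acetone-water and applied at 50 μg/cm^2 onto artificial diet, then dried. One to five second-instar larvae go into each of eight wells. Trays, sealed but vented, stay at 25° C., 14:10 light-dark, five to seven days, after which mortality is averaged.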

Assay [3] deals with Beet Armyworm (Spodoptera exigua, LAPHEG). The assay is described as follows: Bioassay on Beet Armyworm (BAW), 128-well diet tray assay. The essentials:
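Artificial diet surface-treated with 50 μg/cm^2 test molecule in 90:10 acetone-water, dried, then infested with one to five second instar larvae per well. Held covered and vented at 25° C., 14:10 light-dark for five to seven days; percent mortality recorded per well and averaged over eight wells.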

Where [4] appears, read: Cabbage Looper, 128-well diet tray assay, read-out: CL rating.
The mark [5] stands for this setting: Beet Armyworm, 128-well diet tray assay, read-out: BAW rating.
[6] abbreviates: Species CL (Cabbage Looper), read-out: CL (Biological Results, rating).
The mark [7] stands for this setting: Species BAW (Beet Armyworm), read-out: BAW (Biological Results, rating).

Each structure is given as a SMILES string. Where two headings read alike, the source gives them in different places.

For `C=C(F)c1ccc([C@H]2[C@H](C(=O)Nc3ccc(Cl)c(C(=O)Nc4ccc(F)cc4F)c3)C2(Cl)Cl)cc1Cl` (relative stereo) [F383, 2-Chloro-5-(trans-2,2-dichloro-3-(3-chloro-4-(1-fluorovinyl)phenyl)cyclopropane-1-carboxamido)-N-(2,4-difluorophenyl)benzamide], the YFM rating entry in assay [1] is on record as “A (80-100)”. Also, the pest or weed control at 50 µg/cm2 in assay [2] (setting [4]) and in assay [3] (setting [5]) was 50 to 100% throughout.

For `Cc1cc(NC(=O)OC(C)(C)C)ccc1NC(=O)c1cc(NC(=O)[C@H]2[C@H](c3ccc(Cl)c(Br)c3)C2(Cl)Cl)ccc1Cl` (relative stereo) [F334, tert-Butyl (4-(5-(trans-3-(3-bromo-4-chlorophenyl)-2,2-dichlorocyclopropane-1-carboxamido)-2-chlorobenzamido)-3-methylphenyl)carbamate], the “YFM (Biological Results, rating)” value in assay [1] is on record as “A (80-100)”. Also, the pest or weed control at 50 µg/cm2 in assay [2] (setting [6]) and in assay [3] (setting [7]) was 50 to 100% throughout.

Consider `Cc1cc(NC(=O)c2cc(NC(=O)[C@H]3[C@H](c4cc(Cl)cc(Cl)c4)C3(Cl)Cl)ccc2Cl)ncc1F` (relative stereo) [F297, trans-2-Chloro-5-(2,2-dichloro-3-(3,5-dichlorophenyl)cyclopropane-1-carboxamido)-N-(5-fluoro-4-methylpyridin-2-yl)benzamide], for which the “YFM (Biological Results, rating)” value in assay [1] is reported as “A (80-100)”. Besides, the pest or weed control at 50 µg/cm2 in assay [2] (setting [6]) and in assay [3] (setting [7]) was 50 to 100% throughout.

In the case of `CN(C(=O)c1cc(NC(=O)[C@H]2[C@H](c3cc(Cl)cc(C(F)(F)F)c3)C2(Cl)Cl)ccc1Cl)c1ccc(F)cc1` (relative stereo) [F88, trans-2-Chloro-5-(2,2-dichloro-3-(3-chloro-5-(trifluoromethyl)phenyl)cyclopropane-1-carboxamido)-N-(4-fluorophenyl)-N-methylbenzamide], the “YFM (Biological Results, rating)” value in assay [1] is “B (More than 0-Less than 80)”. Besides, the pest or weed control at 50 µg/cm2 in assay [2] (setting [6]) and in assay [3] (setting [7]) was 50 to 100% throughout.

Take `N#Cc1cc(Cl)cc([C@H]2[C@H](C(=O)Nc3ccc(Cl)c(C(=O)Nc4ccc(F)c(N)c4F)c3)C2(Cl)Cl)c1` (relative stereo) [F344, trans-N-(3-Amino-2,4-difluorophenyl)-2-chloro-5-(2,2-dichloro-3-(3-chloro-5-cyanophenyl)cyclopropane-1-carboxamido)benzamide]: the “YFM (Biological Results, rating)” value in assay [1] is on record as “A (80-100)”. Further, the pest or weed control at 50 µg/cm2 in assay [2] (setting [6]) and in assay [3] (setting [7]) was 50 to 100% throughout.

`O=C(Nc1nc2cc(F)ccc2s1)c1cc(NC(=O)C2C(c3cc(Cl)cc(Cl)c3)C2(Cl)Cl)ccc1Cl` (stereo not drawn) [F442, 2-Chloro-5-(trans)-2,2-dichloro-3-(3,5-dichlorophenyl)cyclopropane-1-carboxamido)-N-(5-fluorobenzo[d]thiazol-2-yl)benzamide]: the YFM rating result in assay [1] is listed as “B (More than 0-Less than 80)”. Moreover, the pest or weed control at 50 µg/cm2 in assay [2] (setting [4]) and in assay [3] (setting [5]) was 50 to 100% each time.

Turning to `CNc1ccc(NC(=O)c2cc(NC(=O)[C@H]3[C@H](c4cc(Cl)cc(Cl)c4)C3(Cl)Cl)cc(Cl)c2Cl)cc1` (relative stereo) [F249, trans-2,3-Dichloro-5-(2,2-dichloro-3-(3,5-dichlorophenyl)cyclopropane-1-carboxamido)-N-(4-(methylamino)phenyl)benzamide], the “YFM (Biological Results, rating)” value in assay [1] is reported as “A (80-100)”. The pest or weed control at 50 µg/cm2 in assay [2] (setting [6]) and in assay [3] (setting [7]) was 50 to 100% in each case.

Consider `O=C(Nc1cccc(I)c1)c1cc(NC(=O)[C@H]2[C@H](c3cc(Cl)cc(Cl)c3)C2(Cl)Cl)ccc1Cl` (relative stereo) [F194, trans-2-Chloro-5-(2,2-dichloro-3-(3,5-dichlorophenyl)cyclopropane-1-carboxamido)-N-(3-iodophenyl)benzamide], for which the “YFM (Biological Results, rating)” value in assay [1] is “B (More than 0-Less than 80)”. For the same compound, the pest or weed control at 50 µg/cm2 in assay [2] (setting [6]) and in assay [3] (setting [7]) was 50 to 100% each time.

Regarding `O=C(Nc1nc2ccc(F)cc2s1)c1cc(NC(=O)C2C(c3cc(Cl)cc(Cl)c3)C2(Cl)Cl)ccc1Cl` (stereo not drawn) [F445, 2-Chloro-5-(trans)-2,2-dichloro-3-(3,5-dichlorophenyl)cyclopropane-1-carboxamido)-N-(6-fluorobenzo[d]thiazol-2-yl)benzamide], the YFM rating result in assay [1] is “B (More than 0-Less than 80)”. For the same compound, the pest or weed control at 50 µg/cm2 in assay [2] (setting [4]) and in assay [3] (setting [5]) was 50 to 100% each time.

Turning to `O=C(Nc1ncc(F)c(NCc2ccccc2)c1F)c1cc(NC(=O)[C@H]2[C@H](c3cc(Cl)cc(Cl)c3)C2(Cl)Cl)ccc1Cl` [F524, N-(4-(Benzylamino)-3,5-difluoropyridin-2-yl)-2-chloro-5-((1R,3R)-2,2-dichloro-3-(3,5-dichlorophenyl)cyclopropane-1-carboxamido)benzamide], the YFM rating entry in assay [1] is recorded as “A (80-100)”. In addition, the pest or weed control at 50 µg/cm2 in assay [2] (setting [4]) and in assay [3] (setting [5]) was 50 to 100% each time.

Consider `COc1cc([C@H]2[C@H](C(=O)Nc3ccc(Cl)c(C(=O)Nc4ccc(F)cc4F)c3)C2(Cl)Cl)cc(F)c1Br` (relative stereo) [F542, 5-(trans-3-(4-Bromo-3-fluoro-5-methoxyphenyl)-2,2-dichlorocyclopropane-1-carboxamido)-2-chloro-N-(2,4-difluorophenyl)benzamide], for which the YFM rating entry in assay [1] is recorded as “A (80-100)”. In addition, the pest or weed control at 50 µg/cm2 in assay [2] (setting [4]) and in assay [3] (setting [5]) was 50 to 100% each time.

With `C=Cc1ccc([C@H]2[C@H](C(=O)Nc3ccc(Cl)c(C(=O)Nc4ccc(F)cc4)c3)C2(Cl)Cl)cc1Cl` (relative stereo) [F289, 2-chloro-5-(trans-2,2-dichloro-3-(3-chloro-4-vinylphenyl)cyclopropane-1-carboxamido)-N-(4-fluorophenyl)benzamide], in assay [1], the “YFM (Biological Results, rating)” value is “A (80-100)”. Also, the pest or weed control at 50 µg/cm2 in assay [2] (setting [6]) and in assay [3] (setting [7]) was 50 to 100% in each case.

Take `Cc1cc(F)ccc1NC(=O)c1cc(NC(=O)[C@H]2[C@H](c3ccc(F)c(Cl)c3)C2(Cl)Cl)ccc1Cl` (relative stereo) [PF48, trans-2-Chloro-5-(2,2-dichloro-3-(3-chloro-4-fluorophenyl)cyclopropane-1-carboxamido)-N-(4-fluoro-2-methylphenyl)benzamide]: the YFM rating result in assay [1] is “A (80-100)”. For the same compound, the pest or weed control at 50 µg/cm2 in assay [2] (setting [4]) and in assay [3] (setting [5]) was 50 to 100% each time.

On to `O=C(Nc1cc(F)cc([N+](=O)[O-])c1)c1cc(NC(=O)[C@H]2[C@H](c3cc(Cl)c(Cl)c(Cl)c3)C2(Cl)Cl)ccc1Cl` [F417, 2-Chloro-5-((1R,3R)-2,2-dichloro-3-(3,4,5-trichlorophenyl)cyclopropane-1-carboxamido)-N-(3-fluoro-5-nitrophenyl)benzamide], for which the YFM rating entry in assay [1] is “A (80-100)”. Besides, the pest or weed control at 50 µg/cm2 in assay [2] (setting [4]) and in assay [3] (setting [5]) was 50 to 100% throughout.

For the compound `Nc1cc(F)c(NC(=O)c2cc(NC(=O)[C@H]3[C@H](c4cc(Cl)cc(Cl)c4)C3(Cl)Cl)ccc2Cl)cc1F` [F568, trans-N-(4-Amino-2,5-difluorophenyl)-2-chloro-5-((1R,3R)-2,2-dichloro-3-(3,5-dichlorophenyl)cyclopropane-1-carboxamido)benzamide], in assay [1], the YFM rating result is “A (80-100)”. The pest or weed control at 50 µg/cm2 in assay [2] (setting [4]) and in assay [3] (setting [5]) was 50 to 100% in each case.

On to `CCOC(=O)c1cc2cc(NC(=O)c3cc(NC(=O)[C@H]4[C@H](c5cc(Cl)cc(Cl)c5)C4(Cl)Cl)ccc3Cl)ccc2[nH]1` (relative stereo) [F483, Ethyl 5-(2-chloro-5-(trans)(2,2-dichloro-3-(3,5-dichlorophenyl)cyclopropane-1-carboxamido)benzamido)-1H-indole-2-carboxylate], for which the YFM rating result in assay [1] is “A (80-100)”. Moreover, the pest or weed control at 50 µg/cm2 in assay [2] (setting [4]) and in assay [3] (setting [5]) was 50 to 100% throughout.

With `Nc1c(F)cnc(NC(=O)c2cc(NC(=O)[C@H]3[C@H](c4cc(Cl)cc(Cl)c4)C3(Cl)Cl)ccc2Cl)c1F` (relative stereo) [F345, trans-N-(4-Amino-3,5-difluoropyridin-2-yl)-2-chloro-5-(2,2-dichloro-3-(3,5-dichlorophenyl)cyclopropane-1-carboxamido)benzamide], in assay [1], the “YFM (Biological Results, rating)” value is “A (80-100)”. For the same compound, the pest or weed control at 50 µg/cm2 in assay [2] (setting [6]) and in assay [3] (setting [7]) was 50 to 100% throughout.

With `N#Cc1cccc(F)c1NC(=O)c1cc(NC(=O)[C@H]2[C@H](c3cc(Cl)cc(Cl)c3)C2(Cl)Cl)ccc1Cl` (relative stereo) [F299, 2-Chloro-N-(2-cyano-6-fluorophenyl)-5-(trans-2,2-dichloro-3-(3,5-dichlorophenyl)cyclopropane-1-carboxamido)benzamide], in assay [1], the “YFM (Biological Results, rating)” value is “A (80-100)”. For the same compound, the pest or weed control at 50 µg/cm2 in assay [2] (setting [6]) and in assay [3] (setting [7]) was 50 to 100% in each case.

With `CN(C(=O)c1cc(NC(=O)[C@H]2[C@H](c3ccc(C(F)F)cc3)C2(Cl)Cl)ccc1Cl)c1ccc(F)cc1` (relative stereo) [F599, 2-Chloro-5-(trans-2,2-dichloro-3-(4-(difluoromethyl)phenyl)cyclopropane-1-carboxamido)-N-(4-fluorophenyl)-N-methylbenzamide], the YFM rating result in assay [1] is reported as “A (80-100)”. Further, the pest or weed control at 50 µg/cm2 in assay [2] (setting [4]) and in assay [3] (setting [5]) was 50 to 100% in each case.
